Patent US20090062223A1, “AMINO TRICYCLIC-NUCLEOSIDE COMPOUNDS, COMPOSITIONS, AND METHODS OF USE” (GENELABS TECHNOLOGIES, INC., priority 2007, published 2009)
In brackets after ≈: the same amount, converted by molar mass.

Assay: Solubility (shaking flask)
Type: physicochemical
Details: phosphate buffer solution (PBS), aqueous buffer, thermodynamic from solid; PBS; 37° C. for 24 hours
Description: The solubility for certain compounds were determined using the following protocol and procedure. 1) The solution, sterile water or phosphate buffer solution (PBS), was added to the test compound tube to make the final concentration 10 mg/mL. 2) The sample tube was vortexed and incubated at 37° C. for 24 hours. During the incubation period, the sample tube was vortexed several times. 3) After the incubation, vortex the tube and centrifuge the tube at 13,000 rpm for 10 mins using an Eppendorf Centrifuge Model 5415C. If the solution was still cloudy, centrifuge it for longer until a clear supernatant was achieved. 4) The supernatant was diluted to 1×, 10× and 100× in 50% ACN in water. 5) A six point standard curve was prepared separately to make the final concentrations of 1 μg/mL, 5 μg/mL, 10 μg/mL, 20 μg/mL, 40 μg/mL and 60 μg/mL. 6) Samples were quantified using an HPLC with UV detector. 7) From the three concentrations of 1×, 10× and 100× supernatant, choose the value, which was fallen into the standard curve range (1 ug/mL-60 ug/mL), as the final result. If all the results were out of the curve range, adjust using a dilution factor to make the value within the curve range.
For CC(C)C(=O)OCOC(=O)NC1=CC(=O)Nc2ncnc3c2c1cn3[C@@H]1O[C@H](CO)[C@@H](OC(=O)[C@@H](N)C(C)C)[C@]1(C)O [Compound 110, 2-Amino-3-methyl-butyric acid 4-hydroxy-2-hydroxymethyl-5-(9-isobutyryloxymethoxycarbonyl-amino-7-oxo-6,7-dihydro-2,3,5,6-tetraaza-benzo[cd]azulen-2-yl)-4-methyl-tetrahydro-furan-3-yl ester], the solubility at 24 h was 8160 µg/mL (≈ 13800 µM). Compound Cc1oc(=O)oc1COC(=O)NC1=CC(=O)Nc2ncnc3c2c1cn3[C@@H]1O[C@H](COC(=O)C(C)C)[C@@H](OC(=O)C(C)C)C1(C)O (stereo in doubt) [Compound 119, Isobutyric acid 4-hydroxy-3-isobutyryloxy-4-methyl-5-[9-(5-methyl-2-oxo-[1,3]dioxol-4-ylmethoxycarbonylamino)-7-oxo-6,7-dihydro-2,3,5,6-tetraaza-benzo[cd]azulen-2-yl]-tetrahydro-furan-2-ylmethyl ester] has a solubility at 24 h of 6 µg/mL (≈ 9.32 µM). CC(=O)OC1(C)[C@H](OC(=O)C(C)C)[C@@H](COC(=O)C(C)C)O[C@H]1n1cc2c3c(ncnc31)NC(=O)C=C2N (stereo in doubt) [Compound 133, Isobutyric acid 4-acetoxy-5-(9-amino-7-oxo-6,7-dihydro-2,3,5,6-tetraaza-benzo[cd]azulen-2-yl)-3-isobutyryloxy-4-methyl-tetrahydro-furan-2-ylmethyl ester] showed a solubility at 24 h of 17 µg/mL (≈ 32.1 µM). In the case of CC(=O)OCOC(=O)NC1=CC(=O)Nc2ncnc3c2c1cn3[C@@H]1O[C@H](COC(C)=O)C(OC(C)=O)[C@@]1(C)O (stereo in doubt) [Compound 120, Acetic acid 3-acetoxy-5-(9-acetoxymethoxycarbonylamino-7-oxo-6,7-dihydro-2,3,5,6-tetraaza-benzo[cd]azulen-2-yl)-4-hydroxy-4-methyl-tetrahydro-furan-2-ylmethylester], the solubility at 24 h is reported as 60 µg/mL (≈ 110 µM). Cc1oc(=O)oc1COC(=O)NC1=CC(=O)Nc2ncnc3c2c1cn3[C@@H]1O[C@H](CO)[C@@H](O)C1(C)O (stereo partly drawn) [Compound 126, [2-(3,4-Dihydroxy-5-hydroxymethyl-3-methyl-tetrahydro-furan-2-yl)-7-oxo-6,7-dihydro-2H-2,3,5,6-tetraaza-benzo[cd]azulen-9-yl]-carbamic acid5-methyl-2-oxo-[1,3]dioxol-4-ylmethyl ester] gave a solubility at 24 h of 40 µg/mL (≈ 79.5 µM). CC(=O)OCOC(=O)NC1=CC(=O)Nc2ncnc3c2c1cn3[C@@H]1O[C@H](COC(=O)C(C)C)[C@@H](OC(=O)C(C)C)[C@@]1(C)O [Compound 111, Isobutyric acid 5-(9-acetoxymethoxycarbonylamino-7-oxo-6,7-dihydro-2,3,5,6-tetraaza-benzo[cd]azulen-2-yl)-4-hydroxy-2-isobutyryloxymethyl-4-methyl-tetrahydro-furan-3-yl ester] gave a solubility at 24 h of 2 µg/mL (≈ 3.31 µM). In the case of CCC(=O)OC[C@H]1O[C@@H](n2cc3c4c(ncnc42)NC(=O)C=C3N)C(C)(OC(=O)CC)[C@@H]1OC(=O)CC (stereo partly drawn) [Compound 127, Propionic acid 5-(9-amino-7-oxo-6,7-dihydro-2,3,5,6-tetraaza-benzo[cd]azulen-2-yl)-4-methyl-3,4-bis-propionyloxy-tetrahydro-furan-2-ylmethyl ester], the solubility at 24 h is reported as 133 µg/mL (≈ 258 µM). In the case of CC(C)C(=O)OCOC(=O)NC1=CC(=O)Nc2ncnc3c2c1cn3[C@@H]1O[C@H](CO)[C@@H](OC(=O)C(C)C)C1(C)O (stereo partly drawn) [Compound 125, Isobutyric acid 4-hydroxy-2-hydroxymethyl-5-(9-isobutyryloxymethoxycarbonyl-amino-7-oxo-6,7-dihydro-2,3,5,6-tetraaza-benzo[cd]azulen-2-yl)-4-methyl-tetrahydro-furan-3-yl ester], the solubility at 24 h is reported as 51 µg/mL (≈ 90.8 µM). Compound CCC(=O)OC[C@H]1O[C@@H](n2cc3c4c(ncnc42)NC(=O)C=C3N)C(C)(O)[C@@H]1OC(=O)CC (stereo in doubt) [Compound 130, Propionic acid 5-(9-amino-7-oxo-6,7-dihydro-2,3,5,6-tetraaza-benzo[cd]azulen-2-yl)-4-hydroxy-4-methyl-3-propionyloxy-tetrahydro-furan-2-ylmethyl ester] has a solubility at 24 h of 850 µg/mL (≈ 1850 µM).
